In patent US8415285B2, “Composition for the prevention or removal of insoluble salt deposits” (Ecover Coordination Center N.V., priority 2010, dated 2013):
Where two headings read alike, the source gives them in different places.

Legend:
[1] = Descaling efficiency upon short exposure, weight loss of marble plates (IKW protocol); details: for Average weight loss (g), plates: Example 1, 5% active matter acid solution, 10 seconds immersion + 10 minutes, five plates; for Weight loss plates: Example 4, acid levels 0, 1.5 or 3, solutions prepared 20 hours prior; for Weight difference plates: Example 3, short contact
Method: SÖFW-journal, 120, Jahrgang 13:94) for their descaling efficiency upon short exposure.
For each product, five oven-dry marble plates (Carrara marble, 75×150×5 mm, bought at Van Houten Malle) are weighted on a high precision balance and subsequently completely immersed during 10 seconds in a glass beaker holding 950 milliliter of a 5% active matter acid solution. The plates are then removed from the liquor, and put in upright position for 10 minutes during which the acid is allowed for further action. […] The weight loss due to the exposure to the acid is used as a measure for its descaling performance.
(§1) Solutions were allowed to stand until complete dissolution of the lactide before the descaling test was started.
(§2) The required volumes for filling the beakers were prepared as 3% active matter solutions, 20 hours prior to the test.

[2] = Descaling efficiency upon prolonged contact, weight loss of immersed marble blocks (IPP protocol); details: for Average weight loss (g), blocks: Example 2, 24 hours immersion in the acid solution, duplicate; for Weight loss blocks: Example 4, acid levels 0, 1.5 or 3
Method: as §1, §2

[3] = labeling according to EU legislation; cited from earlier work
[4] = Descaling efficiency upon prolonged contact, weight loss of immersed marble blocks (IPP protocol); details: Example 3, 5% solution
[5] = cited from earlier work
[6] = cited from earlier work; remark: listed apart in the source
[7] = footnote b: as % anhydrous at 25° C.; cited from earlier work
[8] = Dissolution and pH development of lactide in water; type: physicochemical
From the text: Slow-release lactide is commercially available from the company Galactic, Belgium.

## CC(O)C(=O)O (stereo not drawn) [Lactic acid]
[1]
  Average weight loss (g), plates: 0.1278 g
  Weight loss plates: 0.09616 g
[2]
  Average weight loss (g), blocks: 9.06 g
[2]; prolonged contact
  Weight loss blocks: 5.2176 g
[3]
  label: Xi

## O=C(O)CC(O)(CC(=O)O)C(=O)O [Citric acid]
[1]
  Average weight loss (g), plates: 0.105 g
  Weight loss plates: 0.05778 g
[1]; 5% solution
  Weight difference plates: 0.0782 g
[2]
  Average weight loss (g), blocks: 3.8461 g
[2]; prolonged contact
  Weight loss blocks: 2.2648 g
[4]
  Weight difference blocks: 3.3186 g

## O=C(O)CCCC(=O)O [glutaric]
[5]; pH 7, 20° C.
  Solubility water 20° C.: 50%
[3]
  label: Xi

## O=C(O)CO [Glycolic acid]
[1]
  Average weight loss (g), plates: 0.1629 g
  Weight loss plates: 0.1115 g
[2]
  Average weight loss (g), blocks: 2.629 g
[2]; prolonged contact
  Weight loss blocks: 4.2873 g
[3]
  label: C, Xn

## CC(=O)O [Acetic]
[3]
  label: C, Xn

## NS(=O)(=O)O [sulfamic]
[6]
  pKa (first value): 0.1
[3]
  label: C, Xn, N

## O=S(=O)(O)O [sulfuric]
[3]
  label: C, T

## O=C(O)[C@H](O)[C@@H](O)[C@H](O)[C@H](O)CO [gluconic]
[5]; pH 7
  Solubility water 20° C.: >50%
[3]
  label: Xn

## O=C(O)CC(O)C(=O)O (stereo not drawn) [Malic acid]
[1]
  Average weight loss (g), plates: 0.1457 g
[2]
  Average weight loss (g), blocks: 8.735 g
[5]; pH 7, 20° C.
  Solubility water 20° C.: >80%
[7]
  Solubility calcium salt as % anhydrous at 25° C.: 0.8%^b
[3]
  label: Xn

## O=C(O)/C=C\C(=O)O [maleic]
[5]; pH 7
  Solubility water 20° C.: >40%

## O=CO [formic]
[3]
  label: C, Xn

## CC1OC(=O)C(C)OC1=O (stereo not drawn) [slow-release lactide]
[8]; demineralized water, 25° C., 5 minutes
  pH of 0.1 w/v % solution after 5 minutes: 3.7
[8]; demineralized water, 25° C., 10 minutes
  pH of 0.1 w/v % solution after 10 minutes: 3.2
[8]; demineralized water, 25° C., 120 minutes
  pH of 0.1 w/v % solution after 120 minutes: 2.5

## O=C(O)C(=O)O [oxalic]
[3]
  label: C, Xn

## O=C(O)CC(=O)O [malonic]
[3]
  label: Xn

## CC1OC(=O)C(C)OC1=O (stereo not drawn) [Lactide, 3,6-Dimethyl-1,4-dioxane-2,5-dione]
[1]; 3% solution
  Weight difference plates: 0.1129 g
[1]; 5% solution
  Weight difference plates: 0.1365 g
[2]; Example 3, 3% solution, prolonged contact
  Weight difference blocks: 2.9844 g
[8]; room temperature, while stirring
  Time for complete dissolution: at least 3 hours
[4]
  Weight difference blocks: 6.0445 g
[5]; pH 7, 20° C.
  Solubility water 20° C.: Insol.^a
[3]
  label: Xi

## O=C(O)/C=C/C(=O)O [fumaric]
[5]; pH 7
  Solubility water 20° C.: 64%

## O=C(O)CCC(=O)O [Succinic acid]
[1]
  Average weight loss (g), plates: 0.1376 g
  Weight loss plates: 0.08734 g
[1]; 5% solution
  Weight difference plates: 0.0899 g
[2]
  Average weight loss (g), blocks: 9.304 g
[2]; prolonged contact
  Weight loss blocks: 4.705 g
[4]
  Weight difference blocks: 7.2479 g
[3]
  label: C, Xn
